# From patent publication US9499565B2 (BEIJING XINTIANYU TECHNOLOGY DEVELOPMENT CO., LTD., priority 2012, dated 2016)
# Test: Long-period stability test of powder injections
# Assay type: physicochemical
# Conditions: placed at room temperature for 28 months
# Protocol: All contents and purities in the present invention are determined using high performance liquid chromatography (HPLC), and chromatography conditions are: filler: octadecylsilane chemically bonded silica; mobile phase: 0.005 mol/L tetrabutyl ammonium hydroxide-acetonitrile (70:30) with pH of 5.0 adjusted by acetic acid; flow rate: 1.5 mL per minute; detection wavelength: 230 nm. The number of theoretical plates should not be less than 3500, as calculated according to sulbactam peak, the separation degree of […] peak and sulbactam peak should meet the requirements, and before official HPLC determination, the precision, accuracy, linearity and range of each specific to-be-quantified substance are also required to be subjected to methodology validation.
substance,measurement,value
cocrystal of piperacillin sodium and sulbactam sodium [cocrystal A],content of piperacillin sodium,higher than 96.5%
same,content of sulbactam sodium,higher than 96.5%
same,total content of related substances,≤ 2%
